Measurements taken from patent US11497833B2, “Self-assembling peptides comprising non-Ionic polar amino acids” (3-D Matrix, Ltd., priority 2014, dated 2022).
Peptide text beside a SMILES is read from it.

Columns and labels:
Type in all cases: physicochemical
[1] = Atomic Force Microscopy (AFM) morphological study of peptide nano structures; conditions: 100 μM peptide solution on mica, rinsed, air-dried, tapping mode
Procedure: Each sample was left on the mica for about 30 seconds (s) and then rinsed with aliquots of 100 μl of Milli-Q (ultrapure) water to remove unattached peptides. The sample on the mica surface was then air-dried for AFM observation. AFM was performed with Asylum-1 MFP-3D AFM System (Asylum Research, Santa Barbara, Calif.) using a tapping mode. The images utilized an Olympus Si tip (AC240FS). The cantilever's free resonance frequency was 70 kHz.

[2] = Stability to autoclave sterilization, mass spectrometry before and after autoclave; conditions: 121° C. for 25 min, high pressure saturated steam; mass spec before and after; N- and C-terminus not protected
From the text: Sterilization is a very important step in the manufacturing process for all biomaterials, including the self-assembling peptide solutions.

[3] = Dissolution in deionized water and visual appearance of peptide solution; conditions: deionized water
[4] = Congo Red assay of gel formation in PBS buffer (pH 7.4); conditions: 1% Congo Red in PBS buffer pH 7.4
Procedure: A Congo Red assay was performed to determine gel formation of peptide solutions in a PBS buffer solution (pH 7.4). 100 μl of each gel at varying concentrations were plated on a glass slide. After 30 seconds, 500 μl of a 1% Congo Red solution in PBS buffer (pH 7.4) was added around and on top of each of the gel aliquots and then the excess Congo Red solution was wiped off prior to examination.
Visualization of gel formation determined the success or failure of gelation at each concentration.

[5] = Rheological properties at various concentrations (rheometer, stress sweep); conditions: 37° C., 10 rad/s; for Loss Modulus (G')* / Storage Modulus (G')*: at 1 Pa of oscillation stress
Procedure: The rheological properties of the ST14 (SEQ ID NO:2) were evaluated at various concentrations using a rheometer (AR500, TA Instruments) with 40 mm plates. Peptide solution (700μL) was placed on the rheometer plate and excess solution was gently removed by Kimwipes; measurements were performed after 2 minutes of relaxation time at 37° C. The storage modulus, loss modulus, and viscosity (η′) were measured at 37° C. with the plates placed at a measuring geometry gap of 300 μm, and stress sweep tests were performed at 0.1 Pa˜1000 Pa of oscillation stress with angular frequency at 10 rad/s.

AFM morphology (nano structure) [1]	solution consistency ([3]; 5 percent w/v)	gel formation ([4]; below 1% peptide)	SMILES	degradation during autoclave treatment [2]	appearance in solution ([3]; 1 percent w/v to 5 percent w/v)	solution consistency ([3]; 1 percent w/v to 5 percent w/v)	gel formation ([4]; 0.5% peptide)	Max. Viscosity (max η') ([5]; Concentration 1)	Loss Modulus (G')* ([5]; Concentration 1)	Storage Modulus (G')* ([5]; Concentration 1)	Max. Viscosity (max η') ([5]; Concentration 1.5)	Loss Modulus (G')* ([5]; Concentration 1.5)	Storage Modulus (G')* ([5]; Concentration 1.5)	Max. Viscosity (max η') ([5]; Concentration 2)	Loss Modulus (G')* ([5]; Concentration 2)	Storage Modulus (G')* ([5]; Concentration 2)	Max. Viscosity (max η') ([5]; Concentration 2.5)	Loss Modulus (G')* ([5]; Concentration 2.5)	Storage Modulus (G')* ([5]; Concentration 2.5)
Aggregates	formed a thick solution	did not form a gel	CC(O)C(N)C(=O)NC(C(=O)NC(C(=O)NC(C(=O)NC(C(=O)NC(C(=O)NC(C(=O)NC(C(=O)NC(C(=O)NC(C(=O)NC(C(=O)NC(C(=O)NC(C(=O)NC(C(=O)O)C(C)O)C(C)O)C(C)O)C(C)O)C(C)O)C(C)O)C(C)O)C(C)O)C(C)O)C(C)O)C(C)O)C(C)O)C(C)O (stereo not drawn) [Peptide T14, TTTTTTTTTTTTTT]	did not degrade	translucent	–	–	–	–	–	–	–	–	–	–	–	–	–	–
–	–	–	CC(O)C(NC(=O)C(CO)NC(=O)C(NC(=O)C(CO)NC(=O)C(NC(=O)C(CO)NC(=O)C(NC(=O)C(CO)NC(=O)C(NC(=O)C(CO)NC(=O)C(NC(=O)C(CO)NC(=O)C(NC(=O)C(N)CO)C(C)O)C(C)O)C(C)O)C(C)O)C(C)O)C(C)O)C(=O)O (stereo not drawn) [ST14, STSTSTSTSTSTST] (H-STSTSTSTSTSTST-OH; configuration not given here)	did not degrade	translucent	formed thick solutions	did not form a gel	1.2 Pa-s	11.4 Pa	67 Pa	1.5 Pa-s	9.8 Pa	94 Pa	2.0 Pa-s	17.3 Pa	136 Pa	2.2 Pa-s	17.1 Pa	167 Pa
